Laboratory results published in patent publication US9340590B2 (priority 2011, dated 2016).
Read-outs that look alike come from different tables or passages of the source. Positions of bridges follow the written chain, without caps; N, C: chain ends. Non-standard residues stand in square brackets, D forms with d. Residues, ends and D or L forms follow the SMILES beside them. Bip = N[C@@H](Cc1ccc(-c2ccccc2)cc1)C(=O)O

What was measured:
Experiment in all cases: cell-based
hNav1.5 = hNav1.5 (Homo sapiens, UniProt Q14524); details: IonWorks Quattro, read-out: IWQ Use Nav1.5
hNav1.3 = hNav1.3 (Homo sapiens, UniProt Q9NY46); details: IonWorks Quattro, read-out: IWQ Use Nav1.3
hNav1.7 = hNav1.7 (Homo sapiens, UniProt Q15858); type: cell-based; details: read-out: IWQ Use Nav1.7
[1] = IonWorks Quattro, use-dependent block, hNav1.7
[2] = clamped to −110 mV, depolarized to −10 mV, 5 min after compound, n=2

hNav1.3, sequence (Q9NY46 whole entry, looked up): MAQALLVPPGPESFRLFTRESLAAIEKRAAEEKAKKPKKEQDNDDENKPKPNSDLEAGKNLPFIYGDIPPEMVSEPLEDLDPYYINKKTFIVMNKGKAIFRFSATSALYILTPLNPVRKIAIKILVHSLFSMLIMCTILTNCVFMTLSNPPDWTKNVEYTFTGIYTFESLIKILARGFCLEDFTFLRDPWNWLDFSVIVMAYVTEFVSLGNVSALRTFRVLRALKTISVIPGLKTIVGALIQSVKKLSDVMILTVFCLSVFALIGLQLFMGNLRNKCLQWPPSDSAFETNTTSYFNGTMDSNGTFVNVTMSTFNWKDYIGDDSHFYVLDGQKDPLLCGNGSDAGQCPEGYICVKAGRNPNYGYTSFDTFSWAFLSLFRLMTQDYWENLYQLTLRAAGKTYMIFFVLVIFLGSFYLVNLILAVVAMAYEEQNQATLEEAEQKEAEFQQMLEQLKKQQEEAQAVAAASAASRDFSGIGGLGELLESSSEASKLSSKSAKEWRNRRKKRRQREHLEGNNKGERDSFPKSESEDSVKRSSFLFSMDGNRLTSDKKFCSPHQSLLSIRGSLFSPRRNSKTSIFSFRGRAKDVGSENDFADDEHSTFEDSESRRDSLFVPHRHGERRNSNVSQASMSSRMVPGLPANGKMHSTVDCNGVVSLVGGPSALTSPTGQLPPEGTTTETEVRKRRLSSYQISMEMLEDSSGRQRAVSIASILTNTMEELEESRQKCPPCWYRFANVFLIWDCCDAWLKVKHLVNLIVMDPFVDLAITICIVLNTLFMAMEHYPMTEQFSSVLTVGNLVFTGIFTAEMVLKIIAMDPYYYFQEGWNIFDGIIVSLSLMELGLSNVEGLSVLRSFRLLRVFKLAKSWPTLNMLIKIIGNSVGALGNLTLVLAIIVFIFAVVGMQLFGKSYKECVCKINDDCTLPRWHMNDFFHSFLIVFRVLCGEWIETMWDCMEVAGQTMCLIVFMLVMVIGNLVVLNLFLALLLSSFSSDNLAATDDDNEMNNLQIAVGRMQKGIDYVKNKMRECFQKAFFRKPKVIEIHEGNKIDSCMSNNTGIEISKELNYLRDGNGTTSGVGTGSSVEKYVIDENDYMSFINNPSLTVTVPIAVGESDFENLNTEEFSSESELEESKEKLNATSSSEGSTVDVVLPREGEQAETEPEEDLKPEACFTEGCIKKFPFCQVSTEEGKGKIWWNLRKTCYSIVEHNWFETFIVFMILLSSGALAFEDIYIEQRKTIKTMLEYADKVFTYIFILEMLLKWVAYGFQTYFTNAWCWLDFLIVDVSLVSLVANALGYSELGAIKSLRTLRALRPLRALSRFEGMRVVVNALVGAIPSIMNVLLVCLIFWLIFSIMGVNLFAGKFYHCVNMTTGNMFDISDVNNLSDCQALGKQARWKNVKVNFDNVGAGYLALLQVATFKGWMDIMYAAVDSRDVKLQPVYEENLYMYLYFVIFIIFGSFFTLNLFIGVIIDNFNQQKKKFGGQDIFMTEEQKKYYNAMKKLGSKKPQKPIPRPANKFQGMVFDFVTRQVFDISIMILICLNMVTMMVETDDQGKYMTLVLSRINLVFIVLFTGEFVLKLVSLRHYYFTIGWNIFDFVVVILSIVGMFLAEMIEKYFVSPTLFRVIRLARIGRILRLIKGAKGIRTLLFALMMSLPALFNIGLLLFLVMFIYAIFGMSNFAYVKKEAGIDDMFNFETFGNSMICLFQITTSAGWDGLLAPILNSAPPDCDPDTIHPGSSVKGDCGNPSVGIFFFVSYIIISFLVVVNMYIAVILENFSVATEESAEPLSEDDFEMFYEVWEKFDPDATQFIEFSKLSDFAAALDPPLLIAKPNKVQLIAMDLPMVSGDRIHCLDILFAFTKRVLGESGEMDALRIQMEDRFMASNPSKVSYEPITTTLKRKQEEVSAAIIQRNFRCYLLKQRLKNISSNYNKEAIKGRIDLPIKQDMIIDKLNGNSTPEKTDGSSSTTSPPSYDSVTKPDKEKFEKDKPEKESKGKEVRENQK
hNav1.7, sequence (Q15858 whole entry, looked up): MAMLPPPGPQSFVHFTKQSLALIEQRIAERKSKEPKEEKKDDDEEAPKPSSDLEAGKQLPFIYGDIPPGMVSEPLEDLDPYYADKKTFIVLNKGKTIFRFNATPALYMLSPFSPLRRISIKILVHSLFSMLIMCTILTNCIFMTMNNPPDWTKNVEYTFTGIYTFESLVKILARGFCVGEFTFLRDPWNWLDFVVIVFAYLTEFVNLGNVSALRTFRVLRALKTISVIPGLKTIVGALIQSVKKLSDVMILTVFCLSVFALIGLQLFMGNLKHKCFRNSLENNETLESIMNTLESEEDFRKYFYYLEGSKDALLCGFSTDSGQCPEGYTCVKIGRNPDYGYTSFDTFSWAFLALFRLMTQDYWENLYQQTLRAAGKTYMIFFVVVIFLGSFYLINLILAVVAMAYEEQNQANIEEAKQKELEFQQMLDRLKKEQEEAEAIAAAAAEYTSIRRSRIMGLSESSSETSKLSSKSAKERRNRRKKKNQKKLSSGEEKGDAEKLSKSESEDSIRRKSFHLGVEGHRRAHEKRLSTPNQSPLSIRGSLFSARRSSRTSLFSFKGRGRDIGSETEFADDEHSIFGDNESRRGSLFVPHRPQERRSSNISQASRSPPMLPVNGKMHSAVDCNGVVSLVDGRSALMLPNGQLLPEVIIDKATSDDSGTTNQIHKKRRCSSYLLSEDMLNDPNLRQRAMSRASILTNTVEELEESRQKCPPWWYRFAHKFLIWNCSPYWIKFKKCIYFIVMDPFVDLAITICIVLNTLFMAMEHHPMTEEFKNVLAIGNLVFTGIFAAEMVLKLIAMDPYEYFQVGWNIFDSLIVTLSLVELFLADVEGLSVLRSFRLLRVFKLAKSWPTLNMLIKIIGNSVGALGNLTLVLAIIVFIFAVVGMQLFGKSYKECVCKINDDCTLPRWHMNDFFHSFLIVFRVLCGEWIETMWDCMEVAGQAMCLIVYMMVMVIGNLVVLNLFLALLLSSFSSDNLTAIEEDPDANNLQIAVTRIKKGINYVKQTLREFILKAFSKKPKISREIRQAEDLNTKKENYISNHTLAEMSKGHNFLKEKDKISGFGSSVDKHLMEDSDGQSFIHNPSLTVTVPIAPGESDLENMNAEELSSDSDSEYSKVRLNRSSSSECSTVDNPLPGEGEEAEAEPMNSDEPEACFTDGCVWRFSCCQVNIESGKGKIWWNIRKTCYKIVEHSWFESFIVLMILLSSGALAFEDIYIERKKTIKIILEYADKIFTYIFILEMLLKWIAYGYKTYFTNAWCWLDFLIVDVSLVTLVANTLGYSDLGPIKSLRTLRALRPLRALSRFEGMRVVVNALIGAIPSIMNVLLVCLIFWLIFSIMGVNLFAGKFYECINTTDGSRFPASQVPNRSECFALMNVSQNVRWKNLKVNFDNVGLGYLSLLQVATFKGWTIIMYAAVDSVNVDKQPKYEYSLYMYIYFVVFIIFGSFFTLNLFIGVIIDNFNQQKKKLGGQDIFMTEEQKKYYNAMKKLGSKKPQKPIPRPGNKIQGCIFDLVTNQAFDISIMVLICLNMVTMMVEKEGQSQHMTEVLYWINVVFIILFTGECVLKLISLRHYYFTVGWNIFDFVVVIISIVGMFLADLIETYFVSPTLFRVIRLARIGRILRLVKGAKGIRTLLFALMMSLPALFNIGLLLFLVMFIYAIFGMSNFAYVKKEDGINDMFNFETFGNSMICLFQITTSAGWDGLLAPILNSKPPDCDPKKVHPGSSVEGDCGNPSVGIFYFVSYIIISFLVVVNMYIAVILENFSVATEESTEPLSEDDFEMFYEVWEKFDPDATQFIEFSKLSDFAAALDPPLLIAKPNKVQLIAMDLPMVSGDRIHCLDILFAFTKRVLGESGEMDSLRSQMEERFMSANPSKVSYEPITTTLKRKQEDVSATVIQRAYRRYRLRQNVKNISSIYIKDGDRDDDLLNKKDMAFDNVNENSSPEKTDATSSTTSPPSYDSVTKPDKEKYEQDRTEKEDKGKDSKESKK

## CC[C@H](C)[C@@H]1NC(=O)[C@@H]2CSSC[C@@H]3NC(=O)[C@H](C(C)C)NC(=O)[C@H](CC(C)C)NC(=O)[C@H](CC(N)=O)NC(=O)[C@@H]4CCCN4C(=O)[C@H](CCCNC(=N)N)NC(=O)[C@H](CSSC[C@H](NC(=O)[C@@H](N)CC(=O)O)C(=O)N[C@@H](CC(C)C)C(=O)NCC(=O)N[C@@H](C)C(=O)N[C@@H](CC[S+](C)[O-])C(=O)N[C@@H](CCCNC(=N)N)C(=O)N[C@@H](CCCCN)C(=O)N2)NC(=O)[C@H](CSSC[C@@H](C(=O)N[C@@H](CCCCN)C(=O)N[C@@H](Cc2ccc(O)cc2)C(=O)N[C@H](C(=O)N[C@@H](Cc2ccccc2)C(N)=O)C(C)C)NC(=O)[C@H](Cc2c[nH]c4ccccc24)NC(=O)[C@H](CCCCN)NC(=O)[C@H](Cc2c[nH]cn2)NC(=O)[C@H]([C@@H](C)O)NC(=O)[C@H](CCCNC(=N)N)NC(=O)[C@H](CO)NC3=O)NC(=O)[C@H](CCCCN)NC(=O)[C@H](CC(=O)O)NC(=O)[C@H](CC(N)=O)NC(=O)[C@H](CC(=O)O)NC(=O)[C@@H]2CCCN2C1=O (single isomer, unassigned) [compound 791]
hNav1.5; use-dependent block, hNav1.5
  IC50: 39.5 µM
hNav1.3; use-dependent block, hNav1.3
  IC50: > 5 µM
hNav1.7; [1]
  IC50: > 5 µM

## CC[C@H](C)[C@@H]1NC(=O)[C@@H]2CSSC[C@@H]3NC(=O)[C@H](C(C)C)NC(=O)[C@H](CC(C)C)NC(=O)[C@H](CC(N)=O)NC(=O)[C@@H]4CCCN4C(=O)[C@H](CCCNC(=N)N)NC(=O)[C@H](CSSC[C@H](NC(=O)[C@@H](N)CC(=O)O)C(=O)N[C@@H](CC(C)C)C(=O)NCC(=O)N[C@@H](C)C(=O)N[C@@H](CC[S+](C)[O-])C(=O)N[C@@H](CCCNC(=N)N)C(=O)N[C@@H](CCCCN)C(=O)N2)NC(=O)[C@H](CSSC[C@@H](C(=O)N[C@@H](CCCCN)C(=O)N[C@@H](Cc2ccc(O)cc2)C(=O)N[C@H](C(=O)N[C@@H](Cc2ccccc2)C(N)=O)C(C)C)NC(=O)[C@H](Cc2c[nH]c4ccccc24)NC(=O)[C@H](CCCCN)NC(=O)[C@H](Cc2c[nH]cn2)NC(=O)[C@H]([C@@H](C)O)NC(=O)[C@H](CCCNC(=N)N)NC(=O)[C@H](CO)NC3=O)NC(=O)[C@H](CCCCN)NC(=O)[C@H](CC(=O)O)NC(=O)[C@H](CC(N)=O)NC(=O)[C@H](CC(=O)O)NC(=O)[C@@H]2CCCN2C1=O (single isomer, unassigned) [compound 792]
hNav1.5; use-dependent block, hNav1.5
  IC50: 49.8 µM
hNav1.3; use-dependent block, hNav1.3
  IC50: > 5 µM
hNav1.7; [1]
  IC50: > 5 µM

## CC[C@H](C)[C@@H]1NC(=O)[C@@H]2CSSC[C@@H]3NC(=O)[C@H](C(C)C)NC(=O)[C@H](CC(C)C)NC(=O)[C@H](CC(N)=O)NC(=O)[C@@H]4CCCN4C(=O)[C@H](CCCNC(=N)N)NC(=O)[C@H](CSSC[C@H](NC(=O)[C@@H](N)CC(=O)O)C(=O)N[C@@H](CC(C)C)C(=O)NCC(=O)N[C@@H](Cc4ccccc4)C(=O)N[C@@H](CC[Se]C)C(=O)N[C@@H](CCCNC(=N)N)C(=O)N[C@@H](CCCCN)C(=O)N2)NC(=O)[C@H](CSSC[C@@H](C(=O)N[C@@H](CCCCN)C(=O)N[C@@H](Cc2ccc(O)cc2)C(=O)N[C@H](C(=O)N[C@@H](Cc2ccccc2)C(N)=O)C(C)C)NC(=O)[C@H](Cc2c[nH]c4ccccc24)NC(=O)[C@H](CCCCN)NC(=O)[C@H](Cc2c[nH]cn2)NC(=O)[C@H]([C@@H](C)O)NC(=O)[C@H](CCCNC(=N)N)NC(=O)[C@H](CO)NC3=O)NC(=O)[C@H](CCCCN)NC(=O)[C@H](CC(=O)O)NC(=O)[C@H](CC(N)=O)NC(=O)[C@H](CC(=O)O)NC(=O)[C@@H]2CCCN2C1=O [SEQ ID NO: 3]
hNav1.5; [2]
  IC50: 13.9 µM
hNav1.3; [2]
  IC50: 0.1 µM
hNav1.7; IonWorks Quattro, clamped to −110 mV, depolarized to −10 mV, 5 min after compound, n=2
  IC50: 0.1 µM

## CC[C@H](C)[C@@H]1NC(=O)[C@@H]2CSSC[C@@H]3NC(=O)[C@H](C(C)C)NC(=O)[C@H](CC(C)C)NC(=O)[C@H](CC(N)=O)NC(=O)[C@@H]4CCCN4C(=O)[C@H](CCCNC(=N)N)NC(=O)[C@H](CSSC[C@H](NC(=O)[C@@H](N)CC(=O)O)C(=O)N[C@@H](CC(C)C)C(=O)NCC(=O)N[C@@H](Cc4ccccc4)C(=O)N[C@@H](CCSC)C(=O)N[C@@H](CCCNC(=N)N)C(=O)N[C@@H](CCCCN)C(=O)N2)NC(=O)[C@H](CSSC[C@@H](C(=O)N[C@@H](CCCCN)C(=O)N[C@@H](Cc2ccc(O)cc2)C(=O)N[C@H](C(=O)N[C@@H](Cc2ccccc2)C(N)=O)C(C)C)NC(=O)[C@H](Cc2ccccc2)NC(=O)[C@H](CCCCN)NC(=O)[C@H](Cc2c[nH]cn2)NC(=O)[C@H]([C@@H](C)O)NC(=O)[C@H](CCCNC(=N)N)NC(=O)[C@H](CO)NC3=O)NC(=O)[C@H](CCCCN)NC(=O)[C@H](CC(=O)O)NC(=O)[C@H](CC(N)=O)NC(=O)[C@H](CC(=O)O)NC(=O)[C@@H]2CCCN2C1=O [compound 112] (H-DCLGFMRKCIPDNDKCCRPNLVCSRTHKFCKYVF-NH2; disulfide 2-17, 9-23, 16-30)
hNav1.5; Table 24, use, […]
  IC50: 6.21 µM
hNav1.7; Table 24, IonWorks Quattro, use, […]
  IC50: 2.18 µM

## CSCC[C@@H]1NC(=O)[C@H](Cc2ccccc2)NC(=O)CNC(=O)[C@H](CC(C)C)NC(=O)[C@@H](NC(=O)[C@@H](N)CC(=O)O)CSSC[C@@H]2NC(=O)[C@@H]3CSSC[C@@H](C(=O)N[C@@H](CCCCN)C(=O)N[C@@H](Cc4ccc(O)cc4)C(=O)N[C@H](C(=O)N[C@@H](Cc4ccccc4)C(N)=O)C(C)C)NC(=O)[C@H](Cc4c[nH]c5ccccc45)NC(=O)[C@H](CCCCN)NC(=O)[C@H](Cc4c[nH]cn4)NC(=O)[C@H]([C@@H](C)O)NC(=O)[C@H](CCCNC(=N)N)NC(=O)[C@H](CO)NC(=O)[C@H](CSSC[C@H](NC(=O)[C@H](CCCCN)NC(=O)[C@H](CCCNC(=N)N)NC1=O)C(=O)N[C@@H](CCSC)C(=O)N1CCC[C@H]1C(=O)N[C@@H](CC(=O)O)C(=O)N[C@@H](CC(N)=O)C(=O)N[C@@H](CC(=O)O)C(=O)N[C@@H](CCCCN)C(=O)N3)NC(=O)[C@H](C(C)C)NC(=O)[C@H](CC(C)C)NC(=O)[C@H](CC(N)=O)NC(=O)[C@@H]1CCCN1C(=O)[C@H](CCCNC(=N)N)NC2=O [compound 307] (H-DCLGFMRKCMPDNDKCCRPNLVCSRTHKWCKYVF-NH2; disulfide 2-17, 9-23, 16-30)
hNav1.5; Use
  IC50: 3.38 µM
hNav1.7
  IC50: 0.09 µM

## CC[C@H](C)[C@@H]1NC(=O)[C@@H]2CSSC[C@@H]3NC(=O)[C@H](C(C)C)NC(=O)[C@H](CC(C)C)NC(=O)[C@H](CC(N)=O)NC(=O)[C@@H]4CCCN4C(=O)[C@H](CCCNC(=N)N)NC(=O)[C@H](CSSC[C@H](NC(=O)[C@@H](N)CC(=O)O)C(=O)N[C@@H](CC(C)C)C(=O)NCC(=O)N[C@@H](Cc4ccccc4)C(=O)N[C@@H](CCSC)C(=O)N[C@@H](CCCNC(=N)N)C(=O)N[C@@H](CCCCN)C(=O)N2)NC(=O)[C@H](CSSC[C@@H](C(=O)N[C@@H](CCCCN)C(=O)N[C@@H](Cc2ccc(-c4ccccc4)cc2)C(=O)N[C@H](C(=O)N[C@@H](Cc2ccccc2)C(N)=O)C(C)C)NC(=O)[C@H](Cc2c[nH]c4ccccc24)NC(=O)[C@H](CCCCN)NC(=O)[C@H](Cc2c[nH]cn2)NC(=O)[C@H]([C@@H](C)O)NC(=O)[C@H](CCCNC(=N)N)NC(=O)[C@H](CO)NC3=O)NC(=O)[C@H](CCCCN)NC(=O)[C@H](CC(=O)O)NC(=O)[C@H](CC(N)=O)NC(=O)[C@H](CC(=O)O)NC(=O)[C@@H]2CCCN2C1=O [compound 376] (H-DCLGFMRKCIPDNDKCCRPNLVCSRTHKWCK[Bip]VF-NH2; disulfide 2-17, 9-23, 16-30)
hNav1.5; Table 25, use, […]
  IC50: 2.9 µM
hNav1.7; Table 25, IonWorks Quattro, use, […]
  IC50: 0.03 µM
